Test in all cases: growth of human tumour cells (NCI), 48 h
The test system of assay [1] is NCI/ADR-RES ovarian.
Assay [2] relates to T-47D breast.
In assay [3] the test system is OVCAR-8 ovarian.
Assay [4] has as its system HS 578T breast.
The subject of assay [5] is UO-31 renal.
Assay [6] concerns NCI-H23 lung.

The structures appear in SMILES notation. Where “and” joins values, the source holds several entries; their conditions need not be identical. Identical values can stand only once.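 The compound was tested at five concentrations on cells cultured in 96-well plates, with a 48-hour exposure period. At the GI50, growth is halved. The concentration for full growth arrest is given as TGI.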

Take `Cc1[nH]c2ccccc2c1-c1cc(-c2cc(-c3c(C)[nH]c4ccccc34)nc(N)n2)nc(N)n1`: the TGI in assay [1], in assay [2], in assay [3], in assay [4], in assay [5] and in assay [6] was above 100 µM throughout.
`O=c1c(O)cccc2cc(O)c(O)c(O)c12`: the GI50 in assay [1] is 34.5 µM; in assay [2] it was above 100 µM; in assay [3] it was 27.3 µM; in assay [4], 5.42 µM; in assay [5], 2.54 µM; in assay [6], 8.89 µM. Also, the TGI in assay [1], in assay [2], in assay [3], in assay [4], in assay [5] and in assay [6] was above 100 µM in each case.
As to `COc1ccc(-c2nc(C(=O)c3ccccc3)n(CC(=O)c3ccccc3)c2-c2ccc(OC)cc2)cc1`, the GI50 in assay [1], in assay [2], in assay [3], in assay [4], in assay [5] and in assay [6] was above 100 µM each time. Moreover, the TGI in assay [1], in assay [2], in assay [3], in assay [4], in assay [5] and in assay [6] was above 100 µM each time.
As to `COC(=O)c1c(O)c([N+](=O)[O-])cc2c1c1c(n2Cc2ccccc2)C(=O)c2ccccc2C1=O`, the GI50 in assay [1] is 21.1 µM; in assay [2], 11.8 µM; in assay [3] it was 14.1 µM; in assay [4], 29.9 µM; in assay [5], 21.1 µM; in assay [6], 21.9 µM. Besides, the TGI in assay [1] was 68.5 µM; in assay [2], 45.8 µM; in assay [3], 53.1 µM; in assay [4] it was 92.4 µM; in assay [5] it was above 100 µM; in assay [6], 84.4 µM.
For `Nc1ncnc2c1c(-c1cccc(OCc3ccccc3)c1)cn2C1CC(CN2CCC2)C1` (centres undefined), the GI50 in assay [1] was 6.47 µM and 8.96 µM; in assay [2], 2.84 µM and 2.79 µM; in assay [3], 5.92 µM and 8.46 µM; in assay [4] it was 2.97 µM and 1.57 µM; in assay [5] it was 1.31 µM and 1.75 µM; in assay [6] it was 4.62 µM and 7.36 µM. The TGI in assay [1] is 22.6 µM and > 10 µM; in assay [2] it was 12.1 µM and > 10 µM; in assay [3], 20 µM and > 10 µM; in assay [4], 24.8 µM and 5.8 µM; in assay [5], 4.34 µM and 9.79 µM; in assay [6], 21.1 µM and > 10 µM.
On to `COc1cc(Nc2ncc(F)c(Nc3ccc4c(n3)NC(=O)C(C)(C)O4)n2)cc(OC)c1OC`, for which the GI50 in assay [1] was above 10 µM; in assay [3], above 100 µM; in assay [4], 0.218 µM and 0.787 µM; in assay [5] it was 0.679 µM; in assay [6], 6.29 µM. Also, the TGI is above 10 µM in assay [1]; above 100 µM in assay [2]; above 100 µM in assay [3]; above 10 µM in assay [5]; above 10 µM in assay [6].
On to `Clc1ccc(C2=Nn3c(nnc3-c3cc(Cl)cc(Cl)c3Cl)SC2)cc1`, for which the GI50 in assay [1] is 16.6 µM; in assay [2], above 100 µM; in assay [3], 38.3 µM; in assay [4] it was 16.5 µM; in assay [6] it was 22.1 µM. In addition, the TGI in assay [1] is above 100 µM; in assay [2], above 100 µM; in assay [3] it was above 100 µM; in assay [4] it was 71.3 µM; in assay [6], 78.8 µM.
In the case of `CCN(CC)CCCC(C)Nc1nc(C)cc(Nc2ccc3nc(C)cc(N)c3c2)n1` (centres undefined), the GI50 in assay [1] was above 100 µM; in assay [2], 28.6 µM; in assay [3], 84.5 µM; in assay [4], 24.6 µM; in assay [5], 86.1 µM; in assay [6], 32.1 µM. In addition, the TGI was above 100 µM in assay [1]; 99.4 µM in assay [2]; above 100 µM in assay [3]; 65.1 µM in assay [4]; above 100 µM in assay [5]; above 100 µM in assay [6].
With `COC1=CC23CCCN2CCc2cc4c(cc2C3C1O)OCO4` (centres undefined), the TGI in assay [1], in assay [2], in assay [3], in assay [4], in assay [5] and in assay [6] was above 100 µM each time.
For the molecule `N#CC(C#N)N=Nc1ccc(Br)cc1`, the GI50 in assay [1] was 4.73 µM; in assay [2], 0.839 µM; in assay [3] it was 3.67 µM; in assay [4] it was 13.4 µM; in assay [5] it was 1.26 µM; in assay [6] it was 2.42 µM. Also, the TGI in assay [1] is above 100 µM; in assay [2], 6.75 µM; in assay [3] it was 33.4 µM; in assay [4] it was above 73.8 µM; in assay [5], 7.05 µM; in assay [6] it was 26.7 µM.
Turning to `Cc1cc2cn3c4ccc(O)cc4[nH]c(=O)c3c2cc1C`, the GI50 in assay [3] is 0.0359 µM; in assay [5], 0.0228 µM; in assay [6], 0.0744 µM. Further, the TGI in assay [3] turned out to be 1.31 µM; in assay [5], 1.84 µM; in assay [6], 1.4 µM.
`C[C@@H]1Cc2c([nH]c3ccccc23)[C@@H](c2c(F)cc(NC3CN(CCCF)C3)cc2F)N1CC(F)(F)CO`: the GI50 is 4.1 µM in assay [1]; 1.06 µM in assay [2]; 11.7 µM in assay [3]; 3.73 µM in assay [4]; 3.7 µM in assay [5]; 11.9 µM in assay [6]. Further, the TGI in assay [1] came out at 16.6 µM; in assay [2], 18.5 µM; in assay [3], 33 µM; in assay [4], 19.1 µM; in assay [5], 16.5 µM; in assay [6] it was 25.6 µM.
Take `CN1CCN(c2ccc(Nc3nc(N)c(C(=O)c4ccc5c(c4)OCCO5)s3)cc2)CC1`: the GI50 is 7.54 µM in assay [1]; 3.69 µM in assay [2]; 5.94 µM in assay [3]; 2.32 µM in assay [4]; 2.6 µM in assay [5]; 3.69 µM in assay [6]. In addition, the TGI was above 25 µM in assay [1]; 9.7 µM in assay [2]; 16.7 µM in assay [3]; 12.2 µM in assay [4]; 8.02 µM in assay [5]; 11.3 µM in assay [6].

The record behind these values is PubChem BioAssay (NCI).
